Test results: patent US20260365653A1, “IRREVERSIBLE MUTEGFR INHIBITORS” (Bayer Aktiengesellschaft, priority 2022, published 2026)

Columns and labels:
[1] = target: T1, mutEGFR (D770_N771insSVD) (Homo sapiens, UniProt P00533, DUP768-770); assay: Exon20-Mutant-EGFR (D770_N771insSVD) kinase assay (TR-FRET); assay type: biochemical; details: mutEGFR (D770_N771insSVD) kinase assay IC50, Table 2a; D770_N771insSVD; 2 mM ATP
T1 construct: GST-EGFR #3 (SVD between D770 and N771); made in house; host or cells: Sf9 insect cells (baculovirus)
T1 sequence (P00533 with tags, fused parts or gaps DUP768-770): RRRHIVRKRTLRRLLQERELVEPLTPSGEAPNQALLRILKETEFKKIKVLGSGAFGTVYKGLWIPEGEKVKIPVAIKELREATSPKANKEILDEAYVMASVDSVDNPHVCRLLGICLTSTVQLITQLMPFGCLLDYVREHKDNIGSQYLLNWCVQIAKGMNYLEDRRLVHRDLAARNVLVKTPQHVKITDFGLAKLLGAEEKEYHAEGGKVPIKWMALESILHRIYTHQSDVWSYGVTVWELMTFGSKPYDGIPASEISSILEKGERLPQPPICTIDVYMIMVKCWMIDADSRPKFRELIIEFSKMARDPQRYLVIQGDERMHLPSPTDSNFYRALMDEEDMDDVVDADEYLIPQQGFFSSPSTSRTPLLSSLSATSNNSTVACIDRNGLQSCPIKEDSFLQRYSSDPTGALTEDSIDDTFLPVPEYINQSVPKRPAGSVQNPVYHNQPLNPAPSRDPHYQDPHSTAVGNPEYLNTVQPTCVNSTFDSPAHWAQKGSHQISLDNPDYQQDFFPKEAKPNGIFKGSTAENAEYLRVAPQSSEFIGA

[2] = target: T2, mutEGFR (D770_N771insNPG, T790) (Homo sapiens, UniProt P00533, INS770NPG/T790M); assay: mutEGFR (D770_N771insNPG, T790) kinase assay; assay type: biochemical; details: Table 2a, D770_N771insNPG
T2 construct: exact insNPG construct not described; in-house EGFR proteins were N-terminal GST fusions from baculovirus/insect cells (borders R669-A1210 given only for WT, insSVD, insASV)
T2 sequence (P00533 with tags, fused parts or gaps INS770NPG/T790M limits assumed): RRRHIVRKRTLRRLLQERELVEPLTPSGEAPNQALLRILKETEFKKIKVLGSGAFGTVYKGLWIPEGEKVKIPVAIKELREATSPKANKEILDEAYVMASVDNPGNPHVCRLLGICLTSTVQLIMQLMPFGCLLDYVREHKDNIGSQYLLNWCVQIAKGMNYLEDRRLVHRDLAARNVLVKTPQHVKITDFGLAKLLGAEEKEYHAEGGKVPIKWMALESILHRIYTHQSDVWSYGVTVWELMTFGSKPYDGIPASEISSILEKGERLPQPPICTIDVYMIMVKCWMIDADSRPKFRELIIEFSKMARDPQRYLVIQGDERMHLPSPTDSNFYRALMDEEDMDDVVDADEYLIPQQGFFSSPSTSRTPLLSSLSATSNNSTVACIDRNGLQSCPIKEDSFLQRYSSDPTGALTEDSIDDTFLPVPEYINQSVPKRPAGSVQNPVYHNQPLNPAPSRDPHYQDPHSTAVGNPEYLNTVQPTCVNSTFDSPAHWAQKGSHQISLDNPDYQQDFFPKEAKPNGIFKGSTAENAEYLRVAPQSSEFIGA
Source text: The different EGFR proteins used in the biochemical kinase activity inhibition assays were generated inhouse by expression in insect cells using Baculo Virus system and subsequent purification as described in the following paragraphs.
The cDNAs encoding the various protein sequences from human EGFR human (P00533) were optimized for expression in eukaryotic cells and synthesized by the GeneArt Technology at Life Technologies.

BA/F3 (insSVD) cells = assay: Ba/F3-EGFR-insSVD cell survival assay (Cell Titer-Glo); assay type: cell-based; details: Mus musculus, BaF3, 48 h, Table 3a, cell survival, Cell Titer-Glo, with 10 ng/ml EGF, without IL-3
In short: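 CellTiter-Glo luminescence read after 48 h compound exposure at 37° C. Cells: IL-3-independent Ba/F3 lines transduced with EGFR-insSVD or EGFR-insSVD T790M, maintained on 10 ng/ml EGF and seeded at 4000 per well.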

IC50 [1] [nM] | IC50 [2] [nM] | Structure (SMILES) | IC50 (BA/F3 (insSVD) cells) [nM]
0.144 | 0.218 | C=CC(=O)N1CCn2nc(-c3ccc4cc[nH]c4c3F)c(-c3ccncc3)c2C1 [Example 114] | 13.7
0.22 | 0.949 | C=CC(=O)N1CCn2nc(-c3ccc(Cl)cc3Cl)c(-c3ccncc3)c2C1 [Example 115, 1-[2-(2,4-dichlorophenyl)-3-(pyridin-4-yl)-6,7-dihydropyrazolo[1,5-a]pyrazin-5(4H)-yl]prop-2-en-1-one] | 42.2
8.38 | 11.5 | C=CC(=O)N1CCn2nc(-c3ccc(Cl)cc3OC)c(-c3ccncc3)c2C1 [Example 116, 1-[2-(4-chloro-2-methoxyphenyl)-3-(pyridin-4-yl)-6,7-dihydropyrazolo[1,5-a]pyrazin-5(4H)-yl]prop-2-en-1-one] | 635
0.384 | 1.86 | C=CC(=O)N1CCn2nc(-c3ccc(Cl)cc3C)c(-c3ccncc3)c2C1 [Example 117, 1-[2-(4-chloro-2-methylphenyl)-3-(pyridin-4-yl)-6,7-dihydropyrazolo[1,5-a]pyrazin-5(4H)-yl]prop-2-en-1-one] | 54.5
50.5 | 50.3 | C=CC(=O)N1CCn2nc(-c3cccc(C#N)c3F)c(-c3ccncc3)c2C1 [Example 120, 2-fluoro-3-[5-(prop-2-enoyl)-3-(pyridin-4-yl)-4,5,6,7-tetrahydropyrazolo[1,5-a]pyrazin-2-yl]benzonitrile] | 933
0.957 | 1.31 | C=CC(=O)N1CCn2nc(-c3cc(Cl)ccc3F)c(-c3ccncc3)c2C1 [Example 132, 1-[2-(5-chloro-2-fluorophenyl)-3-(pyridin-4-yl)-6,7-dihydropyrazolo[1,5-a]pyrazin-5(4H)-yl]prop-2-en-1-one] | 44.2
0.471 | 1.8 | C=CC(=O)N1CCn2nc(-c3ccc(C(F)(F)F)cc3F)c(-c3ccncc3)c2C1 [Example 135, 1-{2-[2-fluoro-4-(trifluoromethyl)phenyl]-3-(pyridin-4-yl)-6,7-dihydropyrazolo[1,5-a]pyrazin-5(4H)-yl}prop-2-en-1-one] | 27.7
1.1 | 4.74 | C=CC(=O)N1CCn2nc(-c3ccccc3F)c(-c3ccncc3)c2C1 [Example 136, 1-[2-(2-fluorophenyl)-3-(pyridin-4-yl)-6,7-dihydropyrazolo[1,5-a]pyrazin-5(4H)-yl]prop-2-en-1-one] | 68.3
0.739 | 2.83 | C=CC(=O)N1CCn2nc(-c3ccc(OC)cc3F)c(-c3ccncc3)c2C1 [Example 142, 1-[2-(2-fluoro-4-methoxyphenyl)-3-(pyridin-4-yl)-6,7-dihydropyrazolo[1,5-a]pyrazin-5(4H)-yl]prop-2-en-1-one] | 53

Further lines, the molecule ahead of its results:

Structure (SMILES) | IC50 [1] [nM] | IC50 [2] [nM] | IC50 (BA/F3 (insSVD) cells) [nM]
C=CC(=O)N1CCn2nc(-c3ccc(Cl)c(C#N)c3)c(-c3ccncc3)c2C1 [Example 118, 2-chloro-5-[5-(prop-2-enoyl)-3-(pyridin-4-yl)-4,5,6,7-tetrahydropyrazolo[1,5-a]pyrazin-2-yl]benzonitrile] | 8.55 | 4.9 | 183
C=CC(=O)N1CCn2nc(-c3ccc(F)c(C#N)c3)c(-c3ccncc3)c2C1 [Example 119, 2-fluoro-5-[5-(prop-2-enoyl)-3-(pyridin-4-yl)-4,5,6,7-tetrahydropyrazolo[1,5-a]pyrazin-2-yl]benzonitrile] | 23.2 | 7.03 | 153
C=CC(=O)N1Cc2c(-c3ccncc3)c(-c3ccc(Cl)cc3)nn2C[C@@H]1C [Example 122, 1-[(6S)-2-(4-chlorophenyl)-6-methyl-3-(pyridin-4-yl)-6,7-dihydropyrazolo[1,5-a]pyrazin-5(4H)-yl]prop-2-en-1-one] | 0.369 | 0.803 | 13.8
C=CC(=O)N1Cc2c(-c3ccncc3)c(-c3ccc(Cl)cc3)nn2C[C@H]1C [Example 123, 1-[(6R)-2-(4-chlorophenyl)-6-methyl-3-(pyridin-4-yl)-6,7-dihydropyrazolo[1,5-a]pyrazin-5(4H)-yl]prop-2-en-1-one] | 1.19 | 1.95 | 23.7
C=CC(=O)N1Cc2c(-c3ccncc3)c(-c3ccc(C(F)(F)F)cc3F)nn2C[C@@H]1C [Example 124, 1-[(6S)-2-[2-fluoro-4-(trifluoromethyl)phenyl]-6-methyl-3-(pyridin-4-yl)-6,7-dihydropyrazolo[1,5-a]pyrazin-5(4H)-yl]prop-2-en-1-one] | 0.859 | 2.08 | 30.4
C=CC(=O)N1Cc2c(-c3ccncc3)c(-c3cccc(C#N)c3)nn2C[C@H]1C [Example 126, 3-[(6R)-6-methyl-5-(prop-2-enoyl)-3-(pyridin-4-yl)-4,5,6,7-tetrahydropyrazolo[1,5-a]pyrazin-2-yl]benzonitrile] | 12.4 | 4.52 | 86.5
C=CC(=O)N1Cc2c(-c3ccncc3)c(-c3cccc(C#N)c3)nn2C[C@@H]1C [Example 127, 3-[(6S)-6-methyl-5-(prop-2-enoyl)-3-(pyridin-4-yl)-4,5,6,7-tetrahydropyrazolo[1,5-a]pyrazin-2-yl]benzonitrile] | 25.4 | 5.65 | 39
C=CC(=O)N1CCn2nc(-c3ccc(OC(F)F)cc3)c(-c3ccncc3)c2C1 [Example 128, 1-{2-[4-(difluoromethoxy)phenyl]-3-(pyridin-4-yl)-6,7-dihydropyrazolo[1,5-a]pyrazin-5(4H)-yl}prop-2-en-1-one] | 3.62 | 13.8 | 139
C=CC(=O)N1CCn2nc(-c3ccc(OC(F)(F)F)cc3)c(-c3ccncc3)c2C1 [Example 129, 1-[3-(pyridin-4-yl)-2-[4-(trifluoromethoxy)phenyl]-6,7-dihydropyrazolo[1,5-a]pyrazin-5(4H)-yl]prop-2-en-1-one] | 2.97 | 16 | 106
C=CC(=O)N1CCn2nc(-c3ccc(OCC)cc3)c(-c3ccncc3)c2C1 [Example 130, 1-[2-(4-ethoxyphenyl)-3-(pyridin-4-yl)-6,7-dihydropyrazolo[1,5-a]pyrazin-5(4H)-yl]prop-2-en-1-one] | 6.69 | 45.5 | 980
C=CC(=O)N1CCn2nc(-c3ccc(C(F)F)cc3)c(-c3ccncc3)c2C1 [Example 131, 1-{2-[4-(difluoromethyl)phenyl]-3-(pyridin-4-yl)-6,7-dihydropyrazolo[1,5-a]pyrazin-5(4H)-yl}prop-2-en-1-one] | 1.79 | 8.01 | 61.3
C=CC(=O)N1CCn2nc(-c3cccc(Cl)c3)c(-c3ccncc3)c2C1 [Example 133, 1-[2-(3-chlorophenyl)-3-(pyridin-4-yl)-6,7-dihydropyrazolo[1,5-a]pyrazin-5(4H)-yl]prop-2-en-1-one] | 3.01 | 3.83 | 172
C=CC(=O)N1CCn2nc(-c3ccc(C(F)(F)F)c(F)c3)c(-c3ccncc3)c2C1 [Example 134, 1-{2-[3-fluoro-4-(trifluoromethyl)phenyl]-3-(pyridin-4-yl)-6,7-dihydropyrazolo[1,5-a]pyrazin-5(4H)-yl}prop-2-en-1-one] | 2.1 | 9.18 | 65.1
C=CC(=O)N1CCn2nc(-c3ccccc3Cl)c(-c3ccncc3)c2C1 [Example 137, 1-[2-(2-chlorophenyl)-3-(pyridin-4-yl)-6,7-dihydropyrazolo[1,5-a]pyrazin-5(4H)-yl]prop-2-en-1-one] | 1.6 | 10.8 | 144
C=CC(=O)N1CCn2nc(-c3ccc(C)cc3)c(-c3ccncc3)c2C1 [Example 138, 1-[2-(4-methylphenyl)-3-(pyridin-4-yl)-6,7-dihydropyrazolo[1,5-a]pyrazin-5(4H)-yl]prop-2-en-1-one] | 0.981 | 2.93 | 23.2
C=CC(=O)N1CCn2nc(-c3cccc(C)c3)c(-c3ccncc3)c2C1 [Example 139, 1-[2-(3-methylphenyl)-3-(pyridin-4-yl)-6,7-dihydropyrazolo[1,5-a]pyrazin-5(4H)-yl]prop-2-en-1-one] | 0.841 | 1.38 | 25.9
C=CC(=O)N1CCn2nc(-c3ccc(CC)cc3)c(-c3ccncc3)c2C1 [Example 140, 1-[2-(4-ethylphenyl)-3-(pyridin-4-yl)-6,7-dihydropyrazolo[1,5-a]pyrazin-5(4H)-yl]prop-2-en-1-one] | 0.812 | 3.08 | 51.4
C=CC(=O)N1CCn2nc(-c3cccc(C#N)c3)c(-c3ccncc3)c2C1 [Example 141, 3-[5-(prop-2-enoyl)-3-(pyridin-4-yl)-4,5,6,7-tetrahydropyrazolo[1,5-a]pyrazin-2-yl]benzonitrile] | 32.4 | 19.7 | 177
C=CC(=O)N1CCn2nc(-c3ccc(SC(F)(F)F)cc3)c(-c3ccncc3)c2C1 [Example 143, 1-[3-(pyridin-4-yl)-2-{4-[(trifluoromethyl)sulfanyl]phenyl}-6,7-dihydropyrazolo[1,5-a]pyrazin-5(4H)-yl]prop-2-en-1-one] | 11.5 | 71.9 | 673
